What was measured:
[1] = target: recombinant PI3Kδ (p110δ-p85α) (Mus musculus, UniProt O35904); test: Competition of idelalisib with ATP (HTRF kinetic assay); assay type: biochemical, murine
Description: After a 1-h preincubation period, PIP2 was added to a final concentration of 10 μM, and ATP was added at concentrations from 0 to 1.5 mM to initiate the reaction. After 45 min, the reactions were quenched with a stop solution from the assay kit. A detection solution was then added to each well, and the mixture was further incubated for 2 h. Time-resolved fluorescence was measured with a Tecan Infinite M1000 plate reader, using an excitation wavelength of 330 nm and emission wavelengths of 620 and 665 nm. The ratio of emission at 665 nm to that at 620 nm was used as the measure of reaction rate. […] Values of α ≫ 1 are indicative of competitive inhibition, values of α approximately equal to 1 imply noncompetitive inhibition, and values of α ≪ 1 are characteristic of uncompetitive inhibitors ([22]).

[2] = target: PI3Kδ-p85α (Mus musculus, UniProt O35904); test: Reversibility (dilution) assay; assay type: biochemical, murine; conditions: preincubation 1 h with 400 nM idelalisib or 100 nM wortmannin; 10 μM PIP2, 300 μM ATP
PI3Kδ-p85α, sequence (O35904 whole entry): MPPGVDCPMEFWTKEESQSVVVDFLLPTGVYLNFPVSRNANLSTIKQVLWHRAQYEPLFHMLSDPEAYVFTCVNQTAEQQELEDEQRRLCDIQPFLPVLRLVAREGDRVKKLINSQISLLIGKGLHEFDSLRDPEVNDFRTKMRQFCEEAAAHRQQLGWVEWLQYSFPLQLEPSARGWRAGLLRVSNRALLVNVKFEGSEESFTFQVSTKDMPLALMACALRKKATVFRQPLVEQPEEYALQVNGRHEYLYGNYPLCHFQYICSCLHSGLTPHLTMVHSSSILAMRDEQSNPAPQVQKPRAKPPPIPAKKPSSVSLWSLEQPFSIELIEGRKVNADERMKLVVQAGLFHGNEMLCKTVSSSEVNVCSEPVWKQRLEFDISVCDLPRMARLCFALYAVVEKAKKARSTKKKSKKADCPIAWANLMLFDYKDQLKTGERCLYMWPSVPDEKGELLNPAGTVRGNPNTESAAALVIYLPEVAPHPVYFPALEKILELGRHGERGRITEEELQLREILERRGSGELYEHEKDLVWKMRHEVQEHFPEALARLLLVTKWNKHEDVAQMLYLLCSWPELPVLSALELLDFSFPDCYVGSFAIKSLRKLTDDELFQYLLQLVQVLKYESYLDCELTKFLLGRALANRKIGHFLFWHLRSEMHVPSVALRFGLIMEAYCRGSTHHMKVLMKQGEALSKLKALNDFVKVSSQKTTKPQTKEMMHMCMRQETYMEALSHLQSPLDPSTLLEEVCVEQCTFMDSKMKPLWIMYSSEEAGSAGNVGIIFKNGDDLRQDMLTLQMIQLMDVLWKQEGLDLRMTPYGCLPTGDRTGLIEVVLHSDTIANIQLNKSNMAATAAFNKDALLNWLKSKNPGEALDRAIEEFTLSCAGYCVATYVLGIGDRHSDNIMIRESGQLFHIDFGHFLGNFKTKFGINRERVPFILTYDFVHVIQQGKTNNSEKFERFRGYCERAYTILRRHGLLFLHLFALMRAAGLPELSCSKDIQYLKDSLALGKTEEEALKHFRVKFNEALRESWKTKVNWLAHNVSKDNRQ
PI3Kδ-p85α, sequence (P27986 whole entry partner): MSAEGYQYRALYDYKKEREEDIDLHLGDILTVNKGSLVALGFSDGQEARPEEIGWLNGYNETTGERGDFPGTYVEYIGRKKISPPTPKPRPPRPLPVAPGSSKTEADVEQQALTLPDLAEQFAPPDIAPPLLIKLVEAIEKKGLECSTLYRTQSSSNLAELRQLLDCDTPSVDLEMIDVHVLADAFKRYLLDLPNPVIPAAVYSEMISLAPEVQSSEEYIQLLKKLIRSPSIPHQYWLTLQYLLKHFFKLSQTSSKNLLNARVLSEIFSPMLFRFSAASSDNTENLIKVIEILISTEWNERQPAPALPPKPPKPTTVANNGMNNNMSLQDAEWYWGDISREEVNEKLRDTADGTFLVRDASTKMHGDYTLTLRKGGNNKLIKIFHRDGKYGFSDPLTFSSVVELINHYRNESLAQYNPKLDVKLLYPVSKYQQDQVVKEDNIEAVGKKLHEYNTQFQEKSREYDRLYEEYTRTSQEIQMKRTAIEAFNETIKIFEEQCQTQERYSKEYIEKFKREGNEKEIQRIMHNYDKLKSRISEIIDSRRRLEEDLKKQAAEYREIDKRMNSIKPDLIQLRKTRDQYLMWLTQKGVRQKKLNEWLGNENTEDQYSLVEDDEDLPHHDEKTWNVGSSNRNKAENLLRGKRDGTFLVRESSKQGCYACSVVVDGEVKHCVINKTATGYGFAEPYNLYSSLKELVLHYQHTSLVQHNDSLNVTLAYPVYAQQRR
Description: One microliter of solution was transferred to 99 μl of reaction buffer solution containing 10 μM PIP2 and 300 μM ATP to initiate the enzyme reaction. At 5-min intervals, samples from each reaction were quenched with HTRF stop solution, and fluorescence was measured using the detection kit as described above. The reactions were measured over a time frame of 40 min. […] The data were analyzed with linear least square fits to obtain reaction rates.

[3] = tested on: broad panel of 351 kinases and 44 mutant kinases; test: KINOMEscan kinase panel; assay type: binding; conditions: 10 μM idelalisib
Description: The enzymatic activity of the class I PI3K isoforms was measured using a time-resolved FRET assay that monitors formation of the product PIP3, because it competes with fluorescently labeled PIP3 for binding to the GRP-1 pleckstrin homology domain protein. An increase in PIP3 product results in a decrease in time-resolved FRET signal as the labeled fluorophore is displaced from the GRP-1. […] After an assay reaction time of 30 min at 25 °C, reactions were terminated with a final concentration of 10 mM EDTA, 10 nM labeled PIP3, and 35 nM europium-labeled GRP-1 detector protein before reading time-resolved FRET on an Envision plate reader (excitation, 340 nm; emission, 615/665 nm; delay, 100 μs; and read window, 500 μs). […] All IC50 values represent geometric mean values of a minimum of four determinations. These assays generally produced results within 3-fold of the reported mean.

[4] = target: PI3Kδ (murine p110δ-p85α) (Mus musculus, UniProt O35904); test: biochemical
PI3Kδ (murine p110δ-p85α), sequence (O35904 whole entry): as the sequence (O35904 whole entry) above
PI3Kδ (murine p110δ-p85α), sequence (P27986 whole entry partner): as the sequence (P27986 whole entry partner) above
Text: All IC50 values represent geometric mean values of a minimum of four determinations.

[5] = target: T1, ΔABD-p110δ (Mus musculus, UniProt O35904); test: Surface plasmon resonance binding assay (Biacore); set-up: species or system murine; conditions: for dissociation from the protein during the dissociation phase: idelalisib 0.12-30 nM, wortmannin 2 μM, 1-hour dissociation phase
T1 construct: digested with the rTEV protease to remove the iSH2 and ABD domains; made in house
T1 sequence (O35904 106-1043 limits assumed): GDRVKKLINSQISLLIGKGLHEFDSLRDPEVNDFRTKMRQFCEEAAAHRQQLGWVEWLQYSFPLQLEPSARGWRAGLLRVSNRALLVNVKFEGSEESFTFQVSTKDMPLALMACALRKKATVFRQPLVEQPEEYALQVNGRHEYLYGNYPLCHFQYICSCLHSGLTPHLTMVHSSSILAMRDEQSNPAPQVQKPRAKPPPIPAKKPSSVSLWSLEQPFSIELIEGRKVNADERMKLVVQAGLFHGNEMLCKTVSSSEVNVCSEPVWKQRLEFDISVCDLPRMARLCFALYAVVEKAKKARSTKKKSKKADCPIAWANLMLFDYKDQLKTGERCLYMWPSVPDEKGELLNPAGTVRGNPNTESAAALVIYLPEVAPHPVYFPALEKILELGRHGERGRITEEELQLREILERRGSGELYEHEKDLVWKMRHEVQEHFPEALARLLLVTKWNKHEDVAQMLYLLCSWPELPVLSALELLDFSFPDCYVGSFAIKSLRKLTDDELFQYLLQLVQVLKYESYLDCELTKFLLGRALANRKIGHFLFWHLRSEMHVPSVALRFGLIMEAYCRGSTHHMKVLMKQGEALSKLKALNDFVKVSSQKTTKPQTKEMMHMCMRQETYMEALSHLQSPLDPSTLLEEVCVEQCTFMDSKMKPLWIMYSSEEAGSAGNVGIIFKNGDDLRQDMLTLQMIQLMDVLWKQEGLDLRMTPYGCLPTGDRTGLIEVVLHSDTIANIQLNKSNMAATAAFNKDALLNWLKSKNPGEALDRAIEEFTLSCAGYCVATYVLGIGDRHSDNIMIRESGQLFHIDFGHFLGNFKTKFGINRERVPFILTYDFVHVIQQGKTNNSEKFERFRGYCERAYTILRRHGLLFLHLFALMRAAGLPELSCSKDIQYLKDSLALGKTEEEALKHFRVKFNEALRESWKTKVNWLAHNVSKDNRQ
Description: ΔABD-p110δ was minimally biotinylated using a 1:1 molar ratio of protein to EZ-link sulfo-NHS-LC-LC-biotin (ThermoScientific; catalog no. 21338). […] Following incubation for 1 h at 4 °C, the mixture was desalted using a Zeba spin desalting column (ThermoScientific; catalog no. 89883) pre-equilibrated in Biacore running buffer (25 mM HEPES, pH 7.5, 150 mM NaCl, 5 mM MgCl2, 1 mM TCEP, 5% glycerol, 0.05% P20) to remove any unreacted biotin. […] Characterization of inhibitor binding and dissociation was performed using a Biacore T100 instrument and research grade series S CM5 sensor chips (GE Healthcare; catalog no. BR-1005-30). Before use, CM5 sensor chips were preconditioned using two 6-s pulses each of 100 mM HCl, 50 mM NaOH, 0.5% (w/v) SDS, and deionized H2O at a flow rate of 100 μl/min. Approximately 15,000 response units (RU) of neutravidin was immobilized on all four surfaces via standard amine-coupling chemistry (GE Healthcare; catalog no. BR-1000-50) in HBS-P buffer (10 mM HEPES, pH 7.4, 150 mM NaCl, 0.005% P20). Biotinylated protein was injected over separate flow cells to achieve capture levels ranging between 6,000 and 14,000 response units. Any remaining free sites on neutravidin were blocked with two 5-min pulses of 50 μM EZ-Link-Amine-PEG2-Biotin (ThermoScientific; catalog no. 21346) at a flow rate of 30 μl/min. […] Wortmannin was injected on a separate sensor chip at a concentration of 2 μM for an 8-min association phase and a 1-hour dissociation phase. At the end of each injection cycle, the injection needle and tubing were washed with 50% DMSO using the “extra wash” command. A five-point DMSO concentration series (ranging from 0.8% to 1.2% DMSO) was included to generate a calibration curve to correct for excluded volume effects. Sensorgrams were double-referenced and corrected for solvent effects using Scrubber 2.0c software (Biologic Software, Campbell, Australia) but fitted using both Scrubber and CLAMP software ([23]).
The data were fitted using a mass transport model ([24], [25]). Three independent surfaces were globally fit for the association and dissociation rates ka and […], while floating the maximum binding response (Rmax) and mass transport (kt) constant for each surface. […] For wortmannin, only an off-rate analysis was performed.

[6] = biotinylated p110δ captured on neutravidin, mass transport model, global fit

recombinant PI3Kδ (p110δ-p85α), sequence (O35904 whole entry): as the sequence (O35904 whole entry) above
recombinant PI3Kδ (p110δ-p85α), sequence (P27986 whole entry partner): as the sequence (P27986 whole entry partner) above

Row | SMILES | Ki ([1]; read-out: Ki (inhibition constant)) | mode of inhibition (parameter α of the global fit) ([1]; α ≫ 1) | recovery of enzyme activity following 1:100 dilution of the enzyme-inhibitor complex [2] | most potent percent inhibition seen for any non-PI3K kinase [3] | IC50 [4] | off rate kd [5, 6] | on rate ka [5, 6] | dissociation from the protein during the dissociation phase [5]
1 | CC[C@H](Nc1ncnc2[nH]cnc12)c1nc2cccc(F)c2c(=O)n1-c1ccccc1 [Idelalisib, 5-fluoro-3-phenyl-2-[(1S)-1-(9H-purin-6-ylamino)propyl]quinazolin-4(3H)-one] | 1.5 ± 0.1 nM | ATP-competitive inhibition | enzyme activity was quickly recovered | 47% | 19 nM | 0.00634 s⁻¹ | 5.18e+06 M⁻¹ s⁻¹ | complete dissociation
2 | COC[C@H]1OC(=O)c2coc3c2[C@@]1(C)C1=C(C3=O)[C@@H]2CCC(=O)[C@@]2(C)C[C@H]1OC(C)=O [wortmannin] |  |  | did not show detectable recovery of activity upon dilution |  |  |  |  | no dissociation after 1 h

— paper PMC4375495 (The Journal of Biological Chemistry, 2015)
